Measurements as given in patent publication US9409876B2, “Bradykinin receptor antagonists and pharmaceutical compositions containing them” (DOMPE' FARMACEUTICI S.P.A., priority 2013, dated 2016).
Read-outs that look alike come from different tables or passages of the source.

Assays:
[1] = Pharmacokinetics after IV administration, brain penetration assessment; format: in vivo, rat; details: for concentration at 60 min / concentration at 240 min / concentration at 15 min: iv, 7.5 mg/kg
Experimental: (§1) In three of the rats tested in Example 56, indicated as R1, […], also the pharmacokinetic profile of compound 8 (R,R) was evaluated. The results are summarised in Tables III to IV and in FIGS. 1-4.
(§2) In tables III and V, T1/2 means the half-time of the compound, Tmax means the time at which the concentration of the compound reaches the maximum level, Cmax means the maximal concentration, Tlast means the latest time-point at which the concentration of the compound can be measured, Clast means the concentration at the latest time-point at which the concentration of the compound can be measured, AUClast means the area under the curve at the latest time-point at which the concentration of the compound can be measured, AUCinf_obs means the area under the curve which is infinitely extrapolated and MRTlast means the mean residence time at the latest time-point at which the concentration of the compound can be measured.
(§3) In tables IV and VI, LLOQ means lower limit of quantification.
Brain penetration was performed by IV administration at 7.5 mg/kg.

[2] = Pharmacokinetics after oral gavage; format: in vivo, rat; details: for AUC(0-inf): read-out: AUCINF_obs (converted); for half-life: read-out: T½
Experimental: as §1
FIGS. 1 and 2 show the plasma concentrations, expressed in ng/ml, of compound 8 (R,R) over time after oral administration for each of the three subjects tested (FIG. 1) and as an average (FIG. 2).
as §2, §3

[3] = Metabolic stability in liver microsomes with NADPH; format: in vitro ADME; details: Wistar, rat, microsomes 0.5 mg/ml, pH 7.4, with NADPH, read-out: intrinsic clearance (CLint)
Experimental: Metabolic stability of compound 8 (R,R) was also determined in rat wistar liver microsomes in the in the presence of NADPH.
The concentration of the compound 8 (R,R) was 1 μM and microsomes 0.5 mg/ml in phosphate buffer 0.1M pH 7.4 with NADPH.
The degradation of the substrates was measured in duplicate by LC/MS/MS during six time points of incubation.

[4] = IV 7.5 mg/kg, Time 480, Average
[5] = Sprague-Dawley (SD), rat, IV 7.5 mg/kg, Brain
[6] = Sprague-Dawley (SD), rat, IV 7.5 mg/kg, Plasma
[7] = Sprague-Dawley, rat, IV 7.5 mg/kg, Brain
[8] = Sprague-Dawley (SD), rat, plasma, po, 10 mg/kg, oral administration, Average, read-out: plasma level
[9] = Sprague-Dawley (SD), rat, plasma, po, 10 mg/kg, oral administration, Rat2, read-out: plasma level
[10] = Sprague-Dawley (SD), rat, plasma, po, 10 mg/kg, oral administration, Rat3, read-out: plasma level
[11] = Sprague-Dawley, rat, plasma, po, 10 mg/kg, 10 mg/kg oral gavage, Average
[12] = Sprague-Dawley, rat, plasma, po, 10 mg/kg, 10 mg/kg oral gavage, Rat 1
[13] = Sprague-Dawley, rat, plasma, po, 10 mg/kg, 10 mg/kg oral gavage, Rat 2
[14] = Sprague-Dawley, rat, plasma, po, 10 mg/kg, 10 mg/kg oral gavage, Rat 3
[15] = Sprague-Dawley, rat, plasma, po, 10 mg/kg, oral administration, Average, read-out: plasma level
[16] = Sprague-Dawley, rat, plasma, po, 10 mg/kg, oral administration, Rat1, read-out: plasma level
[17] = Sprague-Dawley, rat, plasma, po, 10 mg/kg, oral administration, Rat2, read-out: plasma level
[18] = Sprague-Dawley, rat, plasma, po, 10 mg/kg, oral administration, Rat3, read-out: plasma level

Molecule `COc1ccccc1CN(C(=O)CC(C)C)[C@@H](C(=O)NC[C@H]1CCCO1)c1ccc(C)cc1` [Compound 8 (R,R), 3-methyl-N-(2-methoxybenzyl)-N-{[(1R)-1-(4-methylphenyl)]-2-oxo-2-[(2R)-(tetrahydrofuran-2-ylmethyl)amino]ethyl}butanamide] has a Tlast ([1]; IV 7.5 mg/kg, Brain) of 60 min, a Tlast ([1]; IV 7.5 mg/kg, Plasma) of 240 min and a Brain level ([1]; IV 7.5 mg/kg, Time 15, Average) of 635.1 ng/g. For the same molecule, the Brain level ([1]; IV 7.5 mg/kg, Time 15, R1) was 619.3 ng/g, the Brain level ([1]; IV 7.5 mg/kg, Time 15, R2) was 446.05 ng/g and the Brain level ([1]; IV 7.5 mg/kg, Time 15, R3) was 839.85 ng/g. The Brain level ([1]; IV 7.5 mg/kg, Time 240, Average) was “<LLOQ”, the Brain level ([1]; IV 7.5 mg/kg, Time 240, R1) was “<LLOQ” and the Brain level ([1]; IV 7.5 mg/kg, Time 240, R2) was “<LLOQ”. For the same molecule, the Brain level ([1]; IV 7.5 mg/kg, Time 240, R3) was “<LLOQ”, the Brain level [1, 4] was “<LLOQ” and the plasma level [1, 4] was “<LLOQ”. For the same molecule, the Brain level ([1]; IV 7.5 mg/kg, Time 480, R1) was “<LLOQ”, the plasma level ([1]; IV 7.5 mg/kg, Time 480, R1) was “<LLOQ” and the Brain level ([1]; IV 7.5 mg/kg, Time 480, R2) was “<LLOQ”. For the same molecule, the plasma level ([1]; IV 7.5 mg/kg, Time 480, R2) was “<LLOQ”, the Brain level ([1]; IV 7.5 mg/kg, Time 480, R3) was “<LLOQ” and the plasma level ([1]; IV 7.5 mg/kg, Time 480, R3) was “<LLOQ”. The concentration at 60 min ([1]; Sprague-Dawley (SD), rat, brain, Brain, read-out: Clast) was 48.8 ng/mL, the concentration at 240 min ([1]; Sprague-Dawley (SD), rat, plasma, Plasma, read-out: Clast) was 4.2 ng/mL and the AUC(0-t) [1, 5] was 523 ng·h/mL. For the same molecule, the MRT last [1, 5] was 11.2 min, the AUC(0-t) [1, 6] was 1200 ng·h/mL and the MRT last [1, 6] was 15.9 min. The Tmax [1, 6] was 15 min, the half-life ([1]; Sprague-Dawley (SD), rat, IV 7.5 mg/kg, Plasma, read-out: T½) was 12.5 min and the concentration at 60 min ([1]; Sprague-Dawley, rat, brain, Time 60, Average, read-out: Brain level) was 48.8 ng/g. The concentration at 60 min ([1]; Sprague-Dawley, rat, brain, Time 60, R1, read-out: Brain level) was 62.1 ng/g, the concentration at 60 min ([1]; Sprague-Dawley, rat, brain, Time 60, R2, read-out: Brain level) was 34.6 ng/g and the concentration at 60 min ([1]; Sprague-Dawley, rat, brain, Time 60, R3, read-out: Brain level) was 49.5 ng/g. It also gave a Kp ([1]; Sprague-Dawley, rat, brain, IV 7.5 mg/kg, average on the AUC ratio) of roughly 0.43, a concentration at 15 min ([1]; Sprague-Dawley, rat, plasma, Time 15, Average, read-out: Plasma level) of 1400 ng/mL and a concentration at 15 min ([1]; Sprague-Dawley, rat, plasma, Time 15, R1, read-out: Plasma level) of 1600 ng/mL. It also gave a concentration at 15 min ([1]; Sprague-Dawley, rat, plasma, Time 15, R2, read-out: Plasma level) of 1140 ng/mL, a concentration at 15 min ([1]; Sprague-Dawley, rat, plasma, Time 15, R3, read-out: Plasma level) of 1470 ng/mL and a concentration at 60 min ([1]; Sprague-Dawley, rat, plasma, Time 60, Average, read-out: Plasma level) of 162 ng/mL. It also gave a concentration at 60 min ([1]; Sprague-Dawley, rat, plasma, Time 60, R1, read-out: Plasma level) of 123 ng/mL, a concentration at 60 min ([1]; Sprague-Dawley, rat, plasma, Time 60, R2, read-out: Plasma level) of 157 ng/mL and a concentration at 60 min ([1]; Sprague-Dawley, rat, plasma, Time 60, R3, read-out: Plasma level) of 205 ng/mL. For the same molecule, the concentration at 240 min ([1]; Sprague-Dawley, rat, plasma, Time 240, Average, read-out: Plasma level) was 4.2 ng/mL, the concentration at 240 min ([1]; Sprague-Dawley, rat, plasma, Time 240, R1, read-out: Plasma level) was 4.05 ng/mL and the concentration at 240 min ([1]; Sprague-Dawley, rat, plasma, Time 240, R2, read-out: Plasma level) was 3.35 ng/mL. It also gave a concentration at 240 min ([1]; Sprague-Dawley, rat, plasma, Time 240, R3, read-out: Plasma level) of 5.2 ng/mL, a Cmax [1, 7] of 635 ng/g and a Tmax [1, 7] of 15 min. It also gave a Cmax ([1]; Sprague-Dawley, rat, IV 7.5 mg/kg, Plasma) of 1400 ng/mL, a Clast ([2]; 10 mg/kg oral gavage, Average) of 1.1 ng/mL and a Tlast ([2]; 10 mg/kg oral gavage, Average) of 200.0 min. The Tlast ([2]; 10 mg/kg oral gavage, Rat 1) was 240 min, the Tlast ([2]; 10 mg/kg oral gavage, Rat 2) was 240 min and the Tlast ([2]; 10 mg/kg oral gavage, Rat 3) was 120 min. For the same molecule, the bioavailability ([2]; SD (Sprague-Dawley), rat, plasma, 10 mg/kg, oral vs intravenous exposure) was 0.16%, the Cmax ([2]; SD (Sprague-Dawley), rat, plasma, po, 10 mg/kg, oral administration) was roughly 3 ng/mL and the concentration at 15 min [2, 8] was 2.6 ng/mL. The concentration at 15 min [2, 9] was 3 ng/mL, the concentration at 15 min [2, 10] was 2.3 ng/mL and the concentration at 30 min [2, 8] was 2 ng/mL. The concentration at 30 min ([2]; Sprague-Dawley (SD), rat, plasma, po, 10 mg/kg, oral administration, Rat1, read-out: plasma level) was 1.8 ng/mL, the concentration at 30 min [2, 9] was 2.4 ng/mL and the concentration at 30 min [2, 10] was 1.7 ng/mL. The concentration at 240 min ([2]; Sprague-Dawley, rat, plasma, oral, 10 mg/kg, 10 mg/kg oral gavage, Rat 1, read-out: Clast) was 1.1 ng/mL, the concentration at 240 min ([2]; Sprague-Dawley, rat, plasma, oral, 10 mg/kg, 10 mg/kg oral gavage, Rat 2, read-out: Clast) was 1.1 ng/mL and the concentration at 120 min ([2]; Sprague-Dawley, rat, plasma, oral, 10 mg/kg, 10 mg/kg oral gavage, Rat 3, read-out: Clast) was 1 ng/mL. For the same molecule, the AUC(0-t) [2, 11] was 5.63 ng·h/mL, the Cmax [2, 11] was 3.4 ng/mL and the MRT last [2, 11] was 1.41 h. The Tmax [2, 11] was 8.3 min, the AUC(0-inf) [2, 11] was 10.8 ng·h/mL and the half-life [2, 11] was 202 min. The AUC(0-t) [2, 12] was 5.67 ng·h/mL, the Cmax [2, 12] was 4 ng/mL and the MRT last [2, 12] was 1.69 h. For the same molecule, the Tmax [2, 12] was 5 min, the AUC(0-inf) [2, 12] was 14.4 ng·h/mL and the half-life [2, 12] was 345 min. For the same molecule, the AUC(0-t) [2, 13] was 8.62 ng·h/mL, the Cmax [2, 13] was 3 ng/mL and the MRT last [2, 13] was 1.73 h. For the same molecule, the Tmax [2, 13] was 15 min, the AUC(0-inf) [2, 13] was 13.7 ng·h/mL and the half-life [2, 13] was 191 min. For the same molecule, the AUC(0-t) [2, 14] was 2.59 ng·h/mL, the Cmax [2, 14] was 3.3 ng/mL and the MRT last [2, 14] was 0.795 h. The Tmax [2, 14] was 5 min, the AUC(0-inf) [2, 14] was 4.28 ng·h/mL and the half-life [2, 14] was 70.2 min. For the same molecule, the concentration at 5 min [2, 15] was 3.1 ng/mL, the concentration at 5 min [2, 16] was 4 ng/mL and the concentration at 5 min [2, 17] was 2.2 ng/mL. For the same molecule, the concentration at 5 min [2, 18] was 3.3 ng/mL, the concentration at 15 min [2, 16] was 2.7 ng/mL and the concentration at 60 min [2, 15] was 1.4 ng/mL. For the same molecule, the concentration at 60 min [2, 16] was 1.3 ng/mL, the concentration at 60 min [2, 17] was 2.1 ng/mL and the concentration at 60 min [2, 18] was 0.8 ng/mL. For the same molecule, the concentration at 120 min ([2]; Sprague-Dawley, rat, plasma, po, 10 mg/kg, oral administration, 120 min, Average, read-out: plasma level) was 1.7 ng/mL, the concentration at 120 min ([2]; Sprague-Dawley, rat, plasma, po, 10 mg/kg, oral administration, 120 min, Rat1, read-out: plasma level) was 1.3 ng/mL and the concentration at 120 min ([2]; Sprague-Dawley, rat, plasma, po, 10 mg/kg, oral administration, 120 min, Rat2, read-out: plasma level) was 2.8 ng/mL. It also gave a concentration at 120 min ([2]; Sprague-Dawley, rat, plasma, po, 10 mg/kg, oral administration, 120 min, Rat3, read-out: plasma level) of 1 ng/mL, a concentration at 240 min ([2]; Sprague-Dawley, rat, plasma, po, 10 mg/kg, oral administration, 240 min, Average, read-out: plasma level) of 1.1 ng/mL and a concentration at 240 min ([2]; Sprague-Dawley, rat, plasma, po, 10 mg/kg, oral administration, 240 min, Rat1, read-out: plasma level) of 1.1 ng/mL. The concentration at 240 min ([2]; Sprague-Dawley, rat, plasma, po, 10 mg/kg, oral administration, 240 min, Rat2, read-out: plasma level) was 1.1 ng/mL, the “absorption after oral administration” value ([2]; compared to the intravenous exposure) was “very poor absorption” and the plasma level ([2]; oral administration, 240 min, Rat3) was “<LLOQ”. The plasma level ([2]; oral administration, 480 min, Average) was “<LLOQ”, the plasma level ([2]; oral administration, 480 min, Rat1) was “<LLOQ” and the plasma level ([2]; oral administration, 480 min, Rat2) was “<LLOQ”. The plasma level ([2]; oral administration, 480 min, Rat3) was “<LLOQ” and the microsomal CLint at 1 μM [3] was 851 µL/min/mg.
